Results taken from article PMC5078040 (Oncotarget, 2016).

Experiments:
Assay in all cases: KinomeScan
Assay type in all cases: binding
Conditions in all cases: 1uM
[1] = molecular target: T1, JAK2(JH1domain-catalytic) (Homo sapiens, UniProt O60674)
T1 construct: JAK2(JH1domain-catalytic); purchased DiscoveRx KINOMEscan

CDKL3 = molecular target: T2, CDKL3 (Homo sapiens, UniProt Q8IVW4)
T2 construct: purchased DiscoveRx KINOMEscan

EPHB2 = molecular target: T3, EPHB2 (Homo sapiens, UniProt P29323)
T3 construct: purchased DiscoveRx KINOMEscan

[2] = molecular target: T4, RSK4(Kin.Dom.2-C-terminal) (Homo sapiens, UniProt Q9UK32)
T4 construct: RSK4(Kin.Dom.2-C-terminal); purchased DiscoveRx KINOMEscan

CAMK4 = molecular target: T5, CAMK4 (Homo sapiens, UniProt Q16566)
T5 construct: purchased DiscoveRx KINOMEscan

CAMK2B = molecular target: T6, CAMK2B (Homo sapiens, UniProt Q13554)
T6 construct: purchased DiscoveRx KINOMEscan

FGFR4 = molecular target: T7, FGFR4 (Homo sapiens, UniProt P22455)
T7 construct: purchased DiscoveRx KINOMEscan

KIT(V559D,V654A) = molecular target: T8, KIT(V559D,V654A) (Homo sapiens, UniProt P10721, V559D/V654A)
T8 construct: purchased DiscoveRx KINOMEscan

QSK = molecular target: T9, QSK (Homo sapiens, UniProt Q9Y2K2)
T9 construct: purchased DiscoveRx KINOMEscan

PCTK2 = molecular target: T10, PCTK2 (Homo sapiens, UniProt Q00537)
T10 construct: purchased DiscoveRx KINOMEscan

CLK2 = molecular target: T11, CLK2 (Homo sapiens, UniProt P49760)
T11 construct: purchased DiscoveRx KINOMEscan

[3] = molecular target: T12, ABL1(F317I)-nonphosphorylated (Homo sapiens, UniProt P00519, F317I)
T12 construct: purchased DiscoveRx KINOMEscan

MARK2 = molecular target: T13, MARK2 (Homo sapiens, UniProt Q7KZI7)
T13 construct: purchased DiscoveRx KINOMEscan

PIK3CA(H1047Y) = molecular target: T14, PIK3CA(H1047Y) (Homo sapiens, UniProt P42336, H1047Y)
T14 construct: purchased DiscoveRx KINOMEscan

MAPKAPK2 = molecular target: T15, MAPKAPK2 (Homo sapiens, UniProt P49137)
T15 construct: purchased DiscoveRx KINOMEscan

CDKL1 = molecular target: T16, CDKL1 (Homo sapiens, UniProt Q00532)
T16 construct: purchased DiscoveRx KINOMEscan

ACVR2A = molecular target: T17, ACVR2A (Homo sapiens, UniProt P27037)
T17 construct: purchased DiscoveRx KINOMEscan

[4] = molecular target: T18, TYK2(JH2domain-pseudokinase) (Homo sapiens, UniProt P29597)
T18 construct: TYK2(JH2domain-pseudokinase); purchased DiscoveRx KINOMEscan

[5] = molecular target: T19, ABL1(F317L)-nonphosphorylated (Homo sapiens, UniProt P00519, F317L)
T19 construct: purchased DiscoveRx KINOMEscan

OSR1 = molecular target: T20, OSR1 (Homo sapiens, UniProt O95747)
T20 construct: purchased DiscoveRx KINOMEscan

BMPR1B = molecular target: T21, BMPR1B (Homo sapiens, UniProt O00238)
T21 construct: purchased DiscoveRx KINOMEscan

EPHA6 = molecular target: T22, EPHA6 (Homo sapiens, UniProt Q9UF33)
T22 construct: purchased DiscoveRx KINOMEscan

CSK = molecular target: T23, CSK (Homo sapiens, UniProt P41240)
T23 construct: purchased DiscoveRx KINOMEscan

TAOK3 = molecular target: T24, TAOK3 (Homo sapiens, UniProt Q9H2K8)
T24 construct: purchased DiscoveRx KINOMEscan

GSK3B = molecular target: T25, GSK3B (Homo sapiens, UniProt P49841)
T25 construct: purchased DiscoveRx KINOMEscan

RIPK5 = molecular target: T26, RIPK5 (Homo sapiens, UniProt Q6XUX3)
T26 construct: purchased DiscoveRx KINOMEscan

HIPK3 = molecular target: T27, HIPK3 (Homo sapiens, UniProt Q9H422)
T27 construct: purchased DiscoveRx KINOMEscan

JNK3 = molecular target: T28, JNK3 (Homo sapiens, UniProt P53779)
T28 construct: purchased DiscoveRx KINOMEscan

[6] = molecular target: T29, RSK3(Kin.Dom.2-C-terminal) (Homo sapiens, UniProt Q15349)
T29 construct: RSK3(Kin.Dom.2-C-terminal); purchased DiscoveRx KINOMEscan

FLT3(ITD) = tested on: FLT3(ITD)
IRAK1 = molecular target: T30, IRAK1 (Homo sapiens, UniProt P51617)
T30 construct: purchased DiscoveRx KINOMEscan

FLT4 = molecular target: T31, FLT4 (Homo sapiens, UniProt P35916)
T31 construct: purchased DiscoveRx KINOMEscan

MKK7 = molecular target: T32, MKK7 (Homo sapiens, UniProt O14733)
T32 construct: purchased DiscoveRx KINOMEscan

ERK1 = molecular target: T33, ERK1 (Homo sapiens, UniProt P27361)
T33 construct: purchased DiscoveRx KINOMEscan

GCN2(Kin.Dom.2,S808G) = molecular target: T34, GCN2(Kin.Dom.2,S808G) (Homo sapiens, UniProt Q9P2K8, S808G)
T34 construct: GCN2(Kin.Dom.2,S808G); purchased DiscoveRx KINOMEscan

EGFR(G719S) = molecular target: T35, EGFR(G719S) (Homo sapiens, UniProt P00533, G719S)
T35 construct: purchased DiscoveRx KINOMEscan

BMX = molecular target: T36, BMX (Homo sapiens, UniProt P51813)
T36 construct: purchased DiscoveRx KINOMEscan

GAK = molecular target: T37, GAK (Homo sapiens, UniProt O14976)
T37 construct: purchased DiscoveRx KINOMEscan

RIOK3 = molecular target: T38, RIOK3 (Homo sapiens, UniProt O14730)
T38 construct: purchased DiscoveRx KINOMEscan

IRAK4 = molecular target: T39, IRAK4 (Homo sapiens, UniProt Q9NWZ3)
T39 construct: purchased DiscoveRx KINOMEscan

RIOK2 = molecular target: T40, RIOK2 (Homo sapiens, UniProt Q9BVS4)
T40 construct: purchased DiscoveRx KINOMEscan

T10 sequence (Q00537 whole entry): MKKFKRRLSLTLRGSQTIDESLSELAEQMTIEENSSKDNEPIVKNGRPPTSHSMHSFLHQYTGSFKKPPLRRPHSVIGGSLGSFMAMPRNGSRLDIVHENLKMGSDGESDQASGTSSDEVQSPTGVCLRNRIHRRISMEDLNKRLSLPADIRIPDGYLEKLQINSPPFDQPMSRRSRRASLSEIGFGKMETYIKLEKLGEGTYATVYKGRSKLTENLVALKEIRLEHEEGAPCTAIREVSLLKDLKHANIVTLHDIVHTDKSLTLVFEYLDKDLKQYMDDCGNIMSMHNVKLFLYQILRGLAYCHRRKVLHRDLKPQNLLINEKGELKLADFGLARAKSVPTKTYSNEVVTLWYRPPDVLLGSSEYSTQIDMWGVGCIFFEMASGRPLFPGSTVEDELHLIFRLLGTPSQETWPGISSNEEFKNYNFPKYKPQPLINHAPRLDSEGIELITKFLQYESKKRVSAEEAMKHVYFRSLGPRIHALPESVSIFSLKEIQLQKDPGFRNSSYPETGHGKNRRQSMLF
T33 sequence (P27361 whole entry): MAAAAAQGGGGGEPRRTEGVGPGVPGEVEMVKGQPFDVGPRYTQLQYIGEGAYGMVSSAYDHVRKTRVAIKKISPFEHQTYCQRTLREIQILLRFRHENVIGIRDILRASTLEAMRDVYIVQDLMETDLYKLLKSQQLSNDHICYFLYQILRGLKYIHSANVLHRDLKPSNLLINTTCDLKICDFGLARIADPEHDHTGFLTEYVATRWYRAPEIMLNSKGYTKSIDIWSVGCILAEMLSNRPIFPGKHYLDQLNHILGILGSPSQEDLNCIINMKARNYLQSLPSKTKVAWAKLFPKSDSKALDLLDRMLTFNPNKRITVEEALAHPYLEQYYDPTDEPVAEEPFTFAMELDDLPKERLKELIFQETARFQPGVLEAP
T26 sequence (Q6XUX3 whole entry): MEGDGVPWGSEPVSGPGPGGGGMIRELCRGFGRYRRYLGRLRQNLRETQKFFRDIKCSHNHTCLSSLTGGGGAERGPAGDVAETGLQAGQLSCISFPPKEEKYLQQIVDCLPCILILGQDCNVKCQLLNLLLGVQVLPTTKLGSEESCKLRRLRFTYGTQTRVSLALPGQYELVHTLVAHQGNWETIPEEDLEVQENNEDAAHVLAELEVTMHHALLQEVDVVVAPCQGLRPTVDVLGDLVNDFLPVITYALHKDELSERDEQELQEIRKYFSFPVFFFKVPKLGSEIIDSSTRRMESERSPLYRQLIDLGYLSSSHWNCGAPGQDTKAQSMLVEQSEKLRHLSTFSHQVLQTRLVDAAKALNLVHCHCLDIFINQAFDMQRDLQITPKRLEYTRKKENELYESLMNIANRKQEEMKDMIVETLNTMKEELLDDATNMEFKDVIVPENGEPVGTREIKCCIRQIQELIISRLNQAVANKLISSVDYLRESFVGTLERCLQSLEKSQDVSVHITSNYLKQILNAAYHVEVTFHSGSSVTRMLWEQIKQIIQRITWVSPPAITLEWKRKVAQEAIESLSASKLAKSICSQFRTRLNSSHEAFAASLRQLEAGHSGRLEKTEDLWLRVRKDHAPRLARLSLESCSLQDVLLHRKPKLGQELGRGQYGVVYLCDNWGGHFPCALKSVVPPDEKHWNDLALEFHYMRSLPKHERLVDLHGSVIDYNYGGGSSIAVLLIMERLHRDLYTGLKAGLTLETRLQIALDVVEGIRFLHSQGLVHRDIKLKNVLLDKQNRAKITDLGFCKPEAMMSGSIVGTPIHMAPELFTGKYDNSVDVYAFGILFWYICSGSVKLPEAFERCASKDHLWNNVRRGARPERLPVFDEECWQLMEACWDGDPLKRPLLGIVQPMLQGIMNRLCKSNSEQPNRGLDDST
T9 sequence (Q9Y2K2 whole entry): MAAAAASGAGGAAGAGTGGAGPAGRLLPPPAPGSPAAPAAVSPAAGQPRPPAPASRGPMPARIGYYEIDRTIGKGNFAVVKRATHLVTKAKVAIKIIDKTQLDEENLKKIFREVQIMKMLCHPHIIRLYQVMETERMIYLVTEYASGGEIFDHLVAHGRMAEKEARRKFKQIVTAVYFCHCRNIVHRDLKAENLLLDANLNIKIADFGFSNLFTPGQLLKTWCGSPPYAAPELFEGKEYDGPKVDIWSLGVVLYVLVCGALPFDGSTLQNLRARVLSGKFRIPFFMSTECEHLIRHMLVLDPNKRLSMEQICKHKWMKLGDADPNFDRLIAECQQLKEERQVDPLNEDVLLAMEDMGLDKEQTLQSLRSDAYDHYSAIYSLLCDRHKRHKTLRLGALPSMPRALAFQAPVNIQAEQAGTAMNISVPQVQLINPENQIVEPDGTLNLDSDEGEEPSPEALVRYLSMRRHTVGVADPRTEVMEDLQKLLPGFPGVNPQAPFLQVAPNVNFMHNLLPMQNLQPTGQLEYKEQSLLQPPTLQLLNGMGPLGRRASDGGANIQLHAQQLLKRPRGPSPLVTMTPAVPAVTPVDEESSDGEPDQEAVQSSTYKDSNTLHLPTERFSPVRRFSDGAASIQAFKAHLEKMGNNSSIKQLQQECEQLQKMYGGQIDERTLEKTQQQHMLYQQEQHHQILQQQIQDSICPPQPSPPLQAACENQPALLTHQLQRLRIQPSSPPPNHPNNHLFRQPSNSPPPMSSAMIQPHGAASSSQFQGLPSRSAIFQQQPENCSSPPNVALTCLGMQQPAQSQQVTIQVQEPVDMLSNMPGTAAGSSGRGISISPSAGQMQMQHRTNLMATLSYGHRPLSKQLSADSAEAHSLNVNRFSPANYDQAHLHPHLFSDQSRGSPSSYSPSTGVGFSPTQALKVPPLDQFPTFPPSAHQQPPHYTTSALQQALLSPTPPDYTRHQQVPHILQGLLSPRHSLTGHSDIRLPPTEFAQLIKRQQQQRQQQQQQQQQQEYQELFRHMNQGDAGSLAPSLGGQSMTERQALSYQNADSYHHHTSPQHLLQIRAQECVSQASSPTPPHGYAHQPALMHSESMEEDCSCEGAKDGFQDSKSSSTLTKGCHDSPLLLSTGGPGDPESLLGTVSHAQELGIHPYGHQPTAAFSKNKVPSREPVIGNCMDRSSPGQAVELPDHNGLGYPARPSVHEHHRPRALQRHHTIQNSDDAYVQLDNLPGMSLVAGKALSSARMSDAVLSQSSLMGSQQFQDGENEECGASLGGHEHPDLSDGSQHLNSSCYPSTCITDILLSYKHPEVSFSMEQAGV
T13 sequence (Q7KZI7 whole entry): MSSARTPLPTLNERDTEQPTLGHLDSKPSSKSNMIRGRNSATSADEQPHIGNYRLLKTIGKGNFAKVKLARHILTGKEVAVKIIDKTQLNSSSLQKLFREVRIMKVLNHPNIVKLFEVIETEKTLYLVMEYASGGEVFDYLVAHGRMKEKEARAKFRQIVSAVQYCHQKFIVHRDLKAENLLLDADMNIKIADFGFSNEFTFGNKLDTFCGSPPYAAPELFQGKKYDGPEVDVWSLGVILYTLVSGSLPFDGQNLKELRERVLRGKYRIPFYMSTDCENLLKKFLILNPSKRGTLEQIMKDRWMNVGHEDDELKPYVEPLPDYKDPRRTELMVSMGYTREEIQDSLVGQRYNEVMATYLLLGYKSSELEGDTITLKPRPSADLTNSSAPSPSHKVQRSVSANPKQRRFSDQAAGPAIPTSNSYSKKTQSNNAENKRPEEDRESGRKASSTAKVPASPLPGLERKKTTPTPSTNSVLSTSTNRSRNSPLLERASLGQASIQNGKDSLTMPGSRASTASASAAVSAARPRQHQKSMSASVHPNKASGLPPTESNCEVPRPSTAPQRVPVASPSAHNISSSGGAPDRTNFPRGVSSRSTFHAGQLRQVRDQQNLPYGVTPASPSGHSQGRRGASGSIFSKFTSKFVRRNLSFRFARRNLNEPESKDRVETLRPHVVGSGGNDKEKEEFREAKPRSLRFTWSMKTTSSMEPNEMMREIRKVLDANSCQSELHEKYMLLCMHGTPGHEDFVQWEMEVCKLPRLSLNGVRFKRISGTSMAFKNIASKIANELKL
T22 sequence (Q9UF33 23-1036): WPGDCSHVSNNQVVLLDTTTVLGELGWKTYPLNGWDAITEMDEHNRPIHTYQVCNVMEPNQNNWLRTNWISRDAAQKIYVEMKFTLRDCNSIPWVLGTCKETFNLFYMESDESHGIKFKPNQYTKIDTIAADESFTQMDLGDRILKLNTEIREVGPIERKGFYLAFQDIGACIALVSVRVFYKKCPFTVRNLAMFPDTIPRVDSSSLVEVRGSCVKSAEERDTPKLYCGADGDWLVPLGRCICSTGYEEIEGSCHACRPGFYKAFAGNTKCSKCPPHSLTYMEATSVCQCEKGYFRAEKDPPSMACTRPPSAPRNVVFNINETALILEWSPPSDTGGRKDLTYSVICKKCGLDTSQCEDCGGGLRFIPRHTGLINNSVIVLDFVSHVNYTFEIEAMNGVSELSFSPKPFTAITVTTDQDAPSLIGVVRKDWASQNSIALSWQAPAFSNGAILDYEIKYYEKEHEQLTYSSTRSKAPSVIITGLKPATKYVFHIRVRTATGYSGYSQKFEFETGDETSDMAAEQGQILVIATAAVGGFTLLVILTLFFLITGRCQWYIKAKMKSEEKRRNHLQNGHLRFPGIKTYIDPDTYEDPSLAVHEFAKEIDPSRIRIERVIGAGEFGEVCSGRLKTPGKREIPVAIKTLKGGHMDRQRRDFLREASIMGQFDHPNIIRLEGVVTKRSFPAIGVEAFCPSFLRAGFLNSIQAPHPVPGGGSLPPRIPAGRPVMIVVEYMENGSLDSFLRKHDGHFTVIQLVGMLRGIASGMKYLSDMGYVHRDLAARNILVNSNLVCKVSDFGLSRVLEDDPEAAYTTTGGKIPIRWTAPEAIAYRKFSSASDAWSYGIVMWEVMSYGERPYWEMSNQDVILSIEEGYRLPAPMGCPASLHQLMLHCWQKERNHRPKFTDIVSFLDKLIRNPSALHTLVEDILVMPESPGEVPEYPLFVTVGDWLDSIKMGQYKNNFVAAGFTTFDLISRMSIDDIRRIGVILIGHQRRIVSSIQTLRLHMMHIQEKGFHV

Cc1nc(NC(=O)[C@@H](N)C(C)C)sc1-c1cnc(Cl)c(NS(=O)(=O)c2ccccc2)c1 [PI3KD-IN-015] was tested, and the “KinomeScan JAK2(JH1domain-catalytic)” value [1] was 96, the “KinomeScan CDKL3” value (CDKL3) was 100 and the “KinomeScan EPHB2” value (EPHB2) was 100. For the same molecule, the “KinomeScan RSK4(Kin.Dom.2-C-terminal)” value [2] was 99, the “KinomeScan CAMK4” value (CAMK4) was 89 and the “KinomeScan CAMK2B” value (CAMK2B) was 91. The “KinomeScan FGFR4” value (FGFR4) was 93, the “KinomeScan KIT(V559D,V654A)” value (KIT(V559D,V654A)) was 97 and the “KinomeScan QSK” value (QSK) was 94. The “KinomeScan PCTK2” value (PCTK2) was 100, the “KinomeScan CLK2” value (CLK2) was 90 and the “KinomeScan ABL1(F317I)-nonphosphorylated” value [3] was 100. The “KinomeScan MARK2” value (MARK2) was 95, the “KinomeScan PIK3CA(H1047Y)” value (PIK3CA(H1047Y)) was 4.4 and the “KinomeScan MAPKAPK2” value (MAPKAPK2) was 95. The “KinomeScan CDKL1” value (CDKL1) was 100, the “KinomeScan ACVR2A” value (ACVR2A) was 100 and the “KinomeScan TYK2(JH2domain-pseudokinase)” value [4] was 100. The “KinomeScan ABL1(F317L)-nonphosphorylated” value [5] was 100, the “KinomeScan OSR1” value (OSR1) was 75 and the “KinomeScan BMPR1B” value (BMPR1B) was 80. The “KinomeScan EPHA6” value (EPHA6) was 100, the “KinomeScan CSK” value (CSK) was 90 and the “KinomeScan TAOK3” value (TAOK3) was 93. For the same molecule, the “KinomeScan GSK3B” value (GSK3B) was 97, the “KinomeScan RIPK5” value (RIPK5) was 83 and the “KinomeScan HIPK3” value (HIPK3) was 100. The “KinomeScan JNK3” value (JNK3) was 100, the “KinomeScan RSK3(Kin.Dom.2-C-terminal)” value [6] was 99 and the “KinomeScan FLT3(ITD)” value (FLT3(ITD)) was 100. The “KinomeScan IRAK1” value (IRAK1) was 60, the “KinomeScan FLT4” value (FLT4) was 93 and the “KinomeScan MKK7” value (MKK7) was 98. The “KinomeScan ERK1” value (ERK1) was 100, the “KinomeScan GCN2(Kin.Dom.2,S808G)” value (GCN2(Kin.Dom.2,S808G)) was 100 and the “KinomeScan EGFR(G719S)” value (EGFR(G719S)) was 100. The “KinomeScan BMX” value (BMX) was 100, the “KinomeScan GAK” value (GAK) was 100 and the “KinomeScan RIOK3” value (RIOK3) was 96. For the same molecule, the “KinomeScan IRAK4” value (IRAK4) was 67 and the “KinomeScan RIOK2” value (RIOK2) was 72.
